The target of this test is Thymidylate synthase (Escherichia coli (strain K12), UniProt P0A884). Nature of the test: Thymidylate Synthase (TS) Assay. How it is done: TS was assayed spectrophotometrically in the reaction buffer solution containing (6R, 6S)-5, 10-CH2H4folate. The reaction was initiated by the addition of an amount of enzyme yielding a change in absorbance at 340 nm of 0.016/min in the absence of inhibitor. Ki values were obtained from the linear least-squares fit of the residual activity as a function of inhibitor concentration, using suitable equations for competitive inhibition.

By Ki is commonly meant the dissociation constant of the complex between target and ligand, obtained from inhibition or displacement. Higher therefore signals a looser hold on the target.

Chain of Thymidylate synthase (P0A884 whole entry): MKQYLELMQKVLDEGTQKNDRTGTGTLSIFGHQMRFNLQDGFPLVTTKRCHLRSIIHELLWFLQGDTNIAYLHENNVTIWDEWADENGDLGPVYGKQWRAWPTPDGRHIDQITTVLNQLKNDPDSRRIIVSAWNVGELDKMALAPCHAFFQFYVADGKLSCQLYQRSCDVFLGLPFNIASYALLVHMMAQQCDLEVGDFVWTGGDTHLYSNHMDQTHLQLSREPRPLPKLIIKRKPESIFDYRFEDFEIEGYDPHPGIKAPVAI

Turning to `O=C1OC(c2cc(Br)c(O)c(Br)c2)(c2cc(Br)c(O)c(Br)c2)c2cccc3cccc1c23` [4,4-bis(3,5-dibromo-4-hydroxyphenyl)-3-oxatricyclo[7.3.1.0^{5,13}]trideca-1(12),5,7,9(13),10-pentaen-2-one], the Ki was over 11 mM.

The record behind these values is BindingDB's records for doi:10.1021/jm051187d (Unimore, 2006).
